One assay concerns the target LRRK2 wild type enzyme (Homo sapiens, UniProt Q5S007). The assay can be described thus: Biochemical Assay: LRRK2 TR-FRET (LanthaScreen) kinase assay with LRRKtide substrate. The note with it: LRRK2 Inhibition, Table 8. The essentials: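 TR-FRET detection (Tb-labelled phospho-LRRKtide antibody, EDTA stop, 30 min) followed a 120 min, 23 °C reaction of 3 nM wild-type human LRRK2 with LRRKtide (400 nM) and ATP (25 μM) in Tris pH 8.0. Compounds: 11-point 3-fold series from 10 μM, 15 min enzyme preincubation.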
Background: In TR-FRET formats the signal depends on donor and acceptor labels being close together.

Assay [1] concerns the target T1, wild type LRRK2 overexpressed in recombinant HEK-293T cells (Homo sapiens, UniProt Q5S007).
T1 construct: host or cells: HEK293T (transient transfection with pCMV-LRRK2 WT plasmid)
Briefly: pS935 LRRK2 Cell Assay (HTRF, phospho-LRRK2 Ser935). It is filed as cell-based. The note with it: LRRK2 Inhibition, Table 8, 2 hours compound incubation. The essentials:
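Phospho-Ser935 LRRK2 measured by two-antibody HTRF (Eu-cryptate donor, d2 acceptor; 665/615 nm ratio) after overnight detection at 23° C. Before lysis, transiently LRRK2-transfected HEK-293T cells were exposed 2 h at 37° C to a 9-point, 3-fold series from 10 μM, with DMSO at 0.2%.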

Chain of LRRK2 wild type enzyme (Q5S007 whole entry): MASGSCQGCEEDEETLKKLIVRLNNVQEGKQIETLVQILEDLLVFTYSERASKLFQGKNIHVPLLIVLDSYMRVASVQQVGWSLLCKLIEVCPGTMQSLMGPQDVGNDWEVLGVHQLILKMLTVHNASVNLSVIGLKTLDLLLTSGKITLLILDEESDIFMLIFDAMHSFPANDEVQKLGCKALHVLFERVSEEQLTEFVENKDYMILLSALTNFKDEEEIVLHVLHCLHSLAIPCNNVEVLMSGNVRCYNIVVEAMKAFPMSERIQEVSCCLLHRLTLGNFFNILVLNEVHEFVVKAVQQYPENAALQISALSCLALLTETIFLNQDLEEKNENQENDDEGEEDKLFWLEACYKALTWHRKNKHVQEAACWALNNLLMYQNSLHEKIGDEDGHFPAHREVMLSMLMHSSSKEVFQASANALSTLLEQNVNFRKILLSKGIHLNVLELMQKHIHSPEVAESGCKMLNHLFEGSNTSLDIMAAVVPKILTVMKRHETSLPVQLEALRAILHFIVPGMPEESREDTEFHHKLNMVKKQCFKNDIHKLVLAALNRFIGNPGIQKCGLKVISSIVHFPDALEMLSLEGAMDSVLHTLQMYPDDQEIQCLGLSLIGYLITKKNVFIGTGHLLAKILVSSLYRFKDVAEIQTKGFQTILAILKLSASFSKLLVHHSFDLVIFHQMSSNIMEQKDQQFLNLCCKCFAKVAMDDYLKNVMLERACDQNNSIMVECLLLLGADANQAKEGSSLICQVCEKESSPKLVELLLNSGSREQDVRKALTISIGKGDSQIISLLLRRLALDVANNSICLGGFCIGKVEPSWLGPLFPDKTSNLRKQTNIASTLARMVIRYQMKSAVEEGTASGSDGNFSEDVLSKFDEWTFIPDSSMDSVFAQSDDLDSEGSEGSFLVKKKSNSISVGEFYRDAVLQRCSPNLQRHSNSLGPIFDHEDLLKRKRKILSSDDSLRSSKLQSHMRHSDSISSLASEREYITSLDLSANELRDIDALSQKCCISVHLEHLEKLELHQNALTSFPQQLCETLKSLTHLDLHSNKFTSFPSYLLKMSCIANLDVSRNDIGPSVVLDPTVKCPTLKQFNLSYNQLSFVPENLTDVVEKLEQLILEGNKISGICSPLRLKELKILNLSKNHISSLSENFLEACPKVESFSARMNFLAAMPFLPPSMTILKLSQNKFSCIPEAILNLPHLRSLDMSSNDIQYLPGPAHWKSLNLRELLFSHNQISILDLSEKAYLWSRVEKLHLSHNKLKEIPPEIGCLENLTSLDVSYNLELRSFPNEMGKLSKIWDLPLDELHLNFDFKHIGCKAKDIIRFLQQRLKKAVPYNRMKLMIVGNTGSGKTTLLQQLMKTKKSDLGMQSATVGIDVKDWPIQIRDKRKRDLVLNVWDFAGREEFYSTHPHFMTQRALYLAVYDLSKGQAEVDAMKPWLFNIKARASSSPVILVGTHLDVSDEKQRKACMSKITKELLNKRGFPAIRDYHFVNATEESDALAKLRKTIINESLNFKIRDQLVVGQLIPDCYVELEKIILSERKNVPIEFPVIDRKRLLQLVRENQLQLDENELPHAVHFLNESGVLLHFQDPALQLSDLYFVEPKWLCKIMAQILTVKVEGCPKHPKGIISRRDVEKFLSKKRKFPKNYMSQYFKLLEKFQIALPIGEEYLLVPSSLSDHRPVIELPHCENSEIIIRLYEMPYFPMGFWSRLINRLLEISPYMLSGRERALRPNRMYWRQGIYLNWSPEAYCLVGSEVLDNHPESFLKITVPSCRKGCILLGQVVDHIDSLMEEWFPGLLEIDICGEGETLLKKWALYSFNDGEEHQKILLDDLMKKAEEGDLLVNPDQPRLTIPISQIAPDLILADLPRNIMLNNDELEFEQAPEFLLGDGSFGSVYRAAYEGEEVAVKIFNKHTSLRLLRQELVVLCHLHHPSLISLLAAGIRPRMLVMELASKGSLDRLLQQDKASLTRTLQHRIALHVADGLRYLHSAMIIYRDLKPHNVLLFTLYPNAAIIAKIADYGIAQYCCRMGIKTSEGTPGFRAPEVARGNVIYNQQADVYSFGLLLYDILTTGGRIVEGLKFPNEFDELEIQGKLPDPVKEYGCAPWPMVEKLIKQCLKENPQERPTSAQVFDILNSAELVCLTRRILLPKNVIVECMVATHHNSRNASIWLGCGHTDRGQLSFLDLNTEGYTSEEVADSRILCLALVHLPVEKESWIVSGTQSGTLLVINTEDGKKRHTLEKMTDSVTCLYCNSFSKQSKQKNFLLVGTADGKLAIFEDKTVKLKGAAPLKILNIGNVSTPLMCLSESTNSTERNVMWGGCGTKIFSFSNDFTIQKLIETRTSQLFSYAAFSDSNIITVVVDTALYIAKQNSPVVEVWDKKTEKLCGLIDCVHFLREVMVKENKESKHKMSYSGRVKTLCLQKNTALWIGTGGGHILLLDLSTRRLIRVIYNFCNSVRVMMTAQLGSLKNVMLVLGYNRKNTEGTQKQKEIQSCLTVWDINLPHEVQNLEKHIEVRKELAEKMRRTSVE
T1 sequence (Q5S007 whole entry): as above

Take `Cc1noc(CNC(=O)Cc2nc3cnc4ccc(C#N)cc4c3n2[C@@H]2CCO[C@H](C)C2)n1` [Compound 279, N-[(3-methyl-1,2,4-oxadiazol-5-yl)methyl]{3-[(2R,4R)-2-methyltetrahydro-2H-pyran-4-yl]-12-cyano-3,5,8-triazatricyclo[7.4.0.0^2,6]trideca-1(9),2(6),4,7,10,12-hexaen-4-yl}acetamide]: the IC50 (commonly the concentration at which inhibition is half-maximal) worked out at 0.776 nM at LRRK2 wild type enzyme and 86.3 nM in assay [1].
For `C[C@@H]1C[C@H](n2c(CC(=O)Nc3cncnc3O)nc3cnc4ccc(C#N)cc4c32)CCO1` [Compound 211, N-(4-hydroxy-5-pyrimidinyl){3-[(2R,4R)-2-methyltetrahydro-2H-pyran-4-yl]-12-cyano-3,5,8-triazatricyclo[7.4.0.0^2,6]trideca-1,4,6,8,10,12-hexaen-4-yl}acetamide] the same measures were 0.484 nM and 1690 nM.
For `C[C@@H]1C[C@H](n2c(CC(=O)N[C@@H]3CCCc4cccnc43)nc3cnc4ccc(C#N)cc4c32)CCO1` [Compound 357, N-[(R)-5,6,7,8-tetrahydro-8-quinolyl]{3-[(2R,4R)-2-methyltetrahydro-2H-pyran-4-yl]-12-cyano-3,5,8-triazatricyclo[7.4.0.0^2,6]trideca-1(9),2(6),4,7,10,12-hexaen-4-yl}acetamide], in that order: 0.628 nM and 10.7 nM.
As to `Cc1ccc(NC(=O)Cc2nc3cnc4ccc(C#N)cc4c3n2[C@@H]2CCO[C@H](C)C2)cn1` [Compound 319, N-(6-methyl-3-pyridyl){3-[(2R,4R)-2-methyltetrahydro-2H-pyran-4-yl]-12-cyano-3,5,8-triazatricyclo[7.4.0.0^2,6]trideca-1(9),2(6),4,7,10,12-hexaen-4-yl}acetamide], the values for the IC50 (against LRRK2 wild type enzyme; in assay [1]) were 0.542 nM and 5.93 nM, respectively.
For `CCNC(=O)Cc1nc2cnc3ccc(C#N)cc3c2n1[C@@H]1CCO[C@H](C)C1` [Compound 6, 2-{8-cyano-1-[(2R,4R)-2-methyloxan-4-yl]-1H-imidazo[4,5-c]quinolin-2-yl}-N-ethylacetamide] the same measures were 0.58 nM and 48.7 nM.
For `C[C@@H]1C[C@H](n2c(CC(=O)NC3CC3)nc3cnc4ccc(C#N)cc4c32)CCO1` [Compound 5, 2-{8-cyano-1-[(2R,4R)-2-methyloxan-4-yl]-1H-imidazo[4,5-c]quinolin-2-yl}-N-cyclopropylacetamide], in that order: 0.586 nM and 35.6 nM.
For `CO[C@H]1C[C@@H](NC(=O)Cc2nc3cnc4ccc(C#N)cc4c3n2[C@@H]2CCO[C@H](C)C2)C1` [Compound 301, N-[(1s,3s)-3-methoxycyclobutyl]{3-[(2R,4R)-2-methyltetrahydro-2H-pyran-4-yl]-12-cyano-3,5,8-triazatricyclo[7.4.0.0^2,6]trideca-1,4,6,8,10,12-hexaen-4-yl}acetamide], in that order: 0.701 nM and 41.3 nM.
Turning to `COc1ncc(NC(=O)Cc2nc3cnc4ccc(C#N)cc4c3n2[C@@H]2CCO[C@H](C)C2)c(OC)n1` [Compound 295, N-(2,4-dimethoxy-5-pyrimidinyl){3-[(2R,4R)-2-methyltetrahydro-2H-pyran-4-yl]-12-cyano-3,5,8-triazatricyclo[7.4.0.0^2,6]trideca-1,4,6,8,10,12-hexaen-4-yl}acetamide], the IC50 on LRRK2 wild type enzyme stood at 0.455 nM; in assay [1], 4.67 nM.
For `C[C@@H]1C[C@H](n2c(CC(=O)NCc3ccccn3)nc3cnc4ccc(C#N)cc4c32)CCO1` [Compound 86, 2-{8-cyano-1-[(2R,4R)-2-methyloxan-4-yl]-1H-imidazo[4,5-c]quinolin-2-yl}-N-[(pyridin-2-yl)methyl]acetamide], in that order: 0.422 nM and 7.12 nM.
For `C[C@@H]1C[C@H](n2c(C3CC(=O)N(Cc4ccccn4)C3)nc3cnc4ccc(C#N)cc4c32)CCO1` (mixture of isomers) [Compound 61, 1-[(2R,4R)-2-methyloxan-4-yl]-2-{5-oxo-1-[(pyridin-2-yl)methyl]pyrrolidin-3-yl}-1H-imidazo[4,5-c]quinoline-8-carbonitrile], in that order: 1.09 nM and 89.2 nM.
For `Cc1cncc(NC(=O)Cc2nc3cnc4ccc(C#N)cc4c3n2[C@@H]2CCO[C@H](C)C2)c1` [Compound 269, N-(5-methyl-3-pyridyl){3-[(2R,4R)-2-methyltetrahydro-2H-pyran-4-yl]-12-cyano-3,5,8-triazatricyclo[7.4.0.0^2,6]trideca-1,4,6,8,10,12-hexaen-4-yl}acetamide], in that order: 0.379 nM and 5.17 nM.
In the case of `C[C@@H]1C[C@H](n2c(CC(=O)NC3CCC3)nc3cnc4ccc(C#N)cc4c32)CCO1` [Compound 84, 2-{8-cyano-1-[(2R,4R)-2-methyloxan-4-yl]-1H-imidazo[4,5-c]quinolin-2-yl}-N-cyclobutylacetamide], the IC50 against LRRK2 wild type enzyme is 0.436 nM; in assay [1], 26.2 nM.
Turning to `C[C@@H]1C[C@H](n2c(CC(=O)Nc3nccc(C(F)(F)F)n3)nc3cnc4ccc(C#N)cc4c32)CCO1` [Compound 361, N-[4-(trifluoromethyl)-2-pyrimidinyl]{3-[(2R,4R)-2-methyltetrahydro-2H-pyran-4-yl]-12-cyano-3,5,8-triazatricyclo[7.4.0.0^2,6]trideca-1(9),2(6),4,7,10,12-hexaen-4-yl}acetamide], the IC50 against LRRK2 wild type enzyme is 0.454 nM; in assay [1], 4.23 nM.
For `Cc1nc2ccc(C#N)cc2c2c1nc(CC(=O)NCC1CC1)n2[C@@H]1CCO[C@H](C)C1` [Compound 364, N-cyclopropylmethyl{3-[(2R,4R)-2-methyltetrahydro-2H-pyran-4-yl]-12-cyano-7-methyl-3,5,8-triazatricyclo[7.4.0.0^2,6]trideca-1(9),2(6),4,7,10,12-hexaen-4-yl}acetamide], in that order: 186 nM and 6770 nM.
For `C[C@@H]1C[C@H](n2c(CC(=O)N[C@H](C)c3ccccn3)nc3cnc4ccc(C#N)cc4c32)CCO1` [Compound 190, 2-{8-cyano-1-[(2R,4R)-2-methyloxan-4-yl]-1H-imidazo[4,5-c]quinolin-2-yl}-N-[(1R)-1-(pyridin-2-yl)ethyl]acetamide] the same measures were 0.696 nM and 18.7 nM.
For the molecule `COc1nnccc1NC(=O)Cc1nc2cnc3ccc(C#N)cc3c2n1[C@@H]1CCO[C@H](C)C1` [Compound 222, N-(3-methoxy-4-pyridazinyl){3-[(2R,4R)-2-methyltetrahydro-2H-pyran-4-yl]-12-cyano-3,5,8-triazatricyclo[7.4.0.0^2,6]trideca-1,4,6,8,10,12-hexaen-4-yl}acetamide], the concentration for half-maximal inhibition (IC50) was determined as 0.263 nM at LRRK2 wild type enzyme and 2.9 nM in assay [1].
For `Cc1noc(NC(=O)Cc2nc3cnc4ccc(C#N)cc4c3n2[C@@H]2CCO[C@H](C)C2)c1C` [Compound 349, N-(3,4-dimethyl-5-isoxazolyl){3-[(2R,4R)-2-methyltetrahydro-2H-pyran-4-yl]-12-cyano-3,5,8-triazatricyclo[7.4.0.0^2,6]trideca-1(9),2(6),4,7,10,12-hexaen-4-yl}acetamide], in that order: 0.547 nM and 7.43 nM.
Regarding `C[C@@H]1C[C@H](n2c(CNC(=O)CC3CC3)nc3cnc4ccc(C#N)cc4c32)CCO1` [Compound 18, N-({8-cyano-1-[(2R,4R)-2-methyloxan-4-yl]-1H-imidazo[4,5-c]quinolin-2-yl}methyl)-2-cyclopropylacetamide], the concentration for half-maximal inhibition (IC50) stood at 2.58 nM on LRRK2 wild type enzyme and 182 nM in assay [1].
For `C[C@@H]1C[C@H](n2c(CC(=O)N[C@H]3C[C@@H]3c3cccnc3)nc3cnc4ccc(C#N)cc4c32)CCO1` [Compound 347, N-[(1S,2R)-2-(3-pyridyl)cyclopropyl]{3-[(2R,4R)-2-methyltetrahydro-2H-pyran-4-yl]-12-cyano-3,5,8-triazatricyclo[7.4.0.0^2,6]trideca-1(9),2(6),4,7,10,12-hexaen-4-yl}acetamide] the same measures were 1.28 nM and 144 nM.
For `COc1ccc(NC(=O)Cc2nc3cnc4ccc(C#N)cc4c3n2[C@@H]2CCO[C@H](C)C2)cn1` [Compound 298, N-(6-methoxy-3-pyridyl){3-[(2R,4R)-2-methyltetrahydro-2H-pyran-4-yl]-12-cyano-3,5,8-triazatricyclo[7.4.0.0^2,6]trideca-1,4,6,8,10,12-hexaen-4-yl}acetamide], in that order: 0.346 nM and 5.52 nM.
For `C[C@@H]1C[C@H](n2c(C3CCN(S(=O)(=O)c4cnn(C)c4)CC3)nc3cnc4ccc(C#N)cc4c32)CCO1` [Compound 121, 2-{1-[(1-methyl-1H-pyrazol-4-yl)sulfonyl]piperidin-4-yl}-1-[(2R,4R)-2-methyloxan-4-yl]-1H-imidazo[4,5-c]quinoline-8-carbonitrile], in that order: 1.81 nM and 493 nM.
`Cc1nnc(CNC(=O)Cc2nc3cnc4ccc(C#N)cc4c3n2[C@@H]2CCO[C@H](C)C2)o1` [Compound 257, N-[(5-methyl-1,3,4-oxadiazol-2-yl)methyl]{3-[(2R,4R)-2-methyltetrahydro-2H-pyran-4-yl]-12-cyano-3,5,8-triazatricyclo[7.4.0.0^2,6]trideca-1(9),2(6),4,7,10,12-hexaen-4-yl}acetamide]: the IC50 against LRRK2 wild type enzyme is 0.451 nM; in assay [1], 97 nM.
For `C[C@@H]1C[C@H](n2c(CC(=O)Nc3cccnc3C#N)nc3cnc4ccc(C#N)cc4c32)CCO1` [Compound 272, N-(2-cyano-3-pyridyl){3-[(2R,4R)-2-methyltetrahydro-2H-pyran-4-yl]-12-cyano-3,5,8-triazatricyclo[7.4.0.0^2,6]trideca-1,4,6,8,10,12-hexaen-4-yl}acetamide] the same measures were 0.549 nM and 12.5 nM.
